Measured values published in PMC9077138, “An investigation on 3-acetyl-7-methoxy-coumarin Schiff bases and their Ru(II) metallates with potent antiproliferative activity and enhanced LDH and NO release” (RSC Advances, 2018).

Tests used:
CT-DNA = assay: EB-DNA competitive binding (fluorescence quenching); set-up: species or system calf; conditions: compounds 10–100 μM; for quenching of the emission band of DNA-bound EB: % of the initial fluorescence intensity; for Quenching constant KSV: Stern–Volmer, DNA-EB 10 μM
Description: The competitive binding experiments were carried out on the EB–CT-DNA system by varying the concentrations of the ligands and complexes to get further information about the binding mode of compounds with DNA. In our studies, it was noted that upon concomitant addition of the compounds to the EB-DNA system, emission intensity decreased progressively, indicative of competition between EB and compounds towards CT-DNA in binding/chelation (Fig. S26 ^†). The reduction of the fluorescence emission intensity gives criteria to investigate the DNA binding propensity of the compounds and stacking interaction (intercalation) between the adjacent DNA base pairs.[45] […] This provides a direct evidence for the intercalative binding mode of the compounds with DNA.
Further quantitative measurement of the magnitude of interaction was ascertained by the classical Stern–Volmer equation. Quenching constant KSV is used to evaluate the quenching efficiency and is obtained from the slope of Io/I versus [Q] […] Further, the calculated KSV values of the compounds are significant when compared to the reported values.[30,31]
Supplementary Information
All the experiments involving CT-DNA binding were carried out in deionised water with tris(hydroxymethyl)-aminomethane (Tris, 5 mM) and sodium chloride (50 mM) and adjusted to pH 7.2 with hydrochloric acid at room temperature. The concentration of CT-DNA was determined by UV absorbance at 260 nm. Solutions of CT-DNA in Tris-HCl buffer gave a ratio of UV absorbance at 260 and 280 nm, A260/A280, of approximately 1.9, […]
The molar absorption coefficient, […]
[DNA]/[εa-εf]) = [DNA]/[ε b-εf]+1/Kb[εb-εf] (S1) […]
EB-DNA. The change in the fluorescence intensity was recorded. Before measurements, the system was shaken well and incubated at room temperature for 5 min. […]

HSA = target: T1, HSA (Homo sapiens, UniProt P02768); assay: Three-dimensional fluorescence spectra of HSA; assay type: binding; conditions: HSA 10 μM + compound 10 μM, pH 7.4, 298 K
T1 construct: purchased HiMedia (Mumbai, India)
Description: To investigate the micro environmental changes in BSA/HSA during interaction with the compounds, three dimensional fluorescence spectroscopic studies have been performed. The changes observed in 3D emission spectra and contour lines of serum albumins in the absence and presence of ligands and complexes are given in Fig. 15, 16, S34 and S35 in the ESI ^† and their corresponding characteristic parameters are provided in Table 5. The emission spectra of serum albumins such as BSA and HSA have shown three characteristic peaks – peaks A and C corresponds to first and second order Rayleigh scattering and peak B corresponds to the spectral characteristics of Trp and Tyr residues of proteins.[57] The emission intensity of Rayleigh first order scattering peak increased upon adding the compounds to serum albumins. […] The fluorescence intensity of peak ‘B’ corresponding to the tryptophan and tyrosine residues decreased with slight blue shift. From the results, it is inferred that the molecular microenvironment and conformational changes of protein occurred after interaction with the complexes and ligands.
Fig. 16 Three-dimensional fluorescence spectra of HSA in the absence and presence of ruthenium(II) complexes 1–4 (pH 7.4, 298 K, [HSA] = 10 μM, [complex] = 10 μM).
Fig. S35. Three-dimensional fluorescence spectra of HSA in the absence and presence of
ligands H 2L1-4 (pH 7.4, 298 K, [HSA] =10 µM, [Ligand] =10 µM) […]

[1] = DPPH radical scavenging assay; conditions: in methanol
Description: (§1) It has been reported that free radical species such as reactive oxygen species (ROS), are involved in the pathogenesis of various diseases through effects on DNA directly and by acting as a tumour promoter.[59,60] The DPPH free radical scavenging activity of the ligands and complexes were studied and quantitatively antioxidant properties were determined by using phosphomolybdate method. We knew that the inhibitory effects of the tested compounds on DPPH radical are concentration dependent and the suppression ratio increases with increasing sample concentrations (Fig. S36 ^†). […] In the phosphomolybdenum assay, the antioxidant activity is expressed as the number of equivalents of ascorbic acid (Table 6). The total antioxidant activity of the compounds is in the following order complex 3 > complex 2 > complex 1 > complex 4 > H2L^3 > H2L^2 > H2L^1 > H2L^4 > ascorbic acid > [RuHClCO(PPh3)3]. The results concluded that the metal complexes are better antioxidants than their parent ligands which may be due to the chelation of the ligands to metal ion.[35] The radical scavenging ability of the new complexes is greater than that of few other reported ruthenium complexes, containing Schiff base ligands.[9]
(§2) The DPPH radical scavenging activity of the compounds have been carried out according to the reported method.[74] In this study, various concentrations of the experimental standard ascorbic acid, [RuHCl(CO)(PPh3)3], ligands (20–100 μM) and complexes (2–10 μM) in methanol were taken. Total antioxidant activity of the compounds was determined by the phosphomolybdate method.[75]

[2] = Total antioxidant capacity, phosphomolybdate method
Description: as §1, §2

T1 sequence (P02768 25-609): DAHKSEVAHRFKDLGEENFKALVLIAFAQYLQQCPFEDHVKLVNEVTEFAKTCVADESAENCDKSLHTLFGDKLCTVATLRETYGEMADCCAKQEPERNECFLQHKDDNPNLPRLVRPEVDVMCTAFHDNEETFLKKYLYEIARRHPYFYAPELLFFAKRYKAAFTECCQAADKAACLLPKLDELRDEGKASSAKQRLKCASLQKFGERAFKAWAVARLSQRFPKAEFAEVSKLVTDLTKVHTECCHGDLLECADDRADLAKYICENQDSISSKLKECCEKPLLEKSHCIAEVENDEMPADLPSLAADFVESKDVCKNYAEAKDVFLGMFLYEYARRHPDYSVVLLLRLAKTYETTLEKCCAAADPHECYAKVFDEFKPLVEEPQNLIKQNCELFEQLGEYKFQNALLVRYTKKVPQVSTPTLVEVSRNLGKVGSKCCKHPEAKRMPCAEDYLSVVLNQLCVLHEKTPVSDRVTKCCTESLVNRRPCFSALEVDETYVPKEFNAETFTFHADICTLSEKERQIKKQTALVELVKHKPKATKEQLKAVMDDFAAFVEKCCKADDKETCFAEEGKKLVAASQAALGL

SMILES | quenching of the emission band of DNA-bound EB (CT-DNA) | Quenching constant KSV (CT-DNA) | Fluorescence peaks Intensity (F) (HSA) | Fluorescence peaks Peak position λex/λem (HSA) | Fluorescence peaks Stokes Δλ (HSA) | Rayleigh scattering peaks Intensity (F) (HSA) | IC50 [1] | Total antioxidant capacity [2] | melting point
COc1ccc2[c]3c(c(=O)oc2c1)C(C)=[N+]1N=C(Nc2ccccc2)[S][Ru-4]31([C]#[O+])([P+](c1ccccc1)(c1ccccc1)c1ccccc1)[P+](c1ccccc1)(c1ccccc1)c1ccccc1 [Complex 4, [Ru(7MAC-ptsc)(CO)(PPh3)2]] | 28.92% | 4.00 ± 0.002 × 10^3 M^−1 | 276.12 | 280/332 | 52 nm | 830.46 | 7.39 ± 0.14 µM | 54.99 ± 0.65 μg ascorbic acid equivalents/ml | –
CCNC1=N[N+]2=C(C)c3[c](c4ccc(OC)cc4oc3=O)[Ru-4]2([C]#[O+])([P+](c2ccccc2)(c2ccccc2)c2ccccc2)([P+](c2ccccc2)(c2ccccc2)c2ccccc2)[S]1 [Complex 3, [Ru(7MAC-etsc)(CO)(PPh3)2]] | 36.99% | 5.62 ± 0.003 × 10^3 M^−1 | 266.21 | 280/337 | 57 nm | 612.58 | 5.28 ± 0.24 µM | 62.71 ± 0.37 μg ascorbic acid equivalents/ml | –
CNC(=S)NN=C(C)c1cc2ccc(OC)cc2oc1=O [H2L^2, ((1E)-1-(1-(7-methoxy-2-oxo-2H-chromen-3-yl)ethylidene) 4(N)-methylthiosemicarbazone)] | – | – | – | – | – | – | – | – | 117 °C
COc1ccc2cc(/C(C)=N\NC(=S)Nc3ccccc3)c(=O)oc2c1 [H2L^4, ((1E)-1-(1-(7-methoxy-2-oxo-2H-chromen-3-yl)ethylidene) 4(N)-phenylthiosemicarbazone)] | – | – | – | – | – | – | – | – | 186 °C
COc1ccc2[c]3c(c(=O)oc2c1)C(C)=[N+]1N=C(N)[S][Ru-4]31([C]#[O+])([P+](c1ccccc1)(c1ccccc1)c1ccccc1)[P+](c1ccccc1)(c1ccccc1)c1ccccc1 [Complex 1, [Ru(7MAC-tsc)(CO)(PPh3)2]] | 27.83% | 4.16 ± 0.002 × 10^3 M^−1 | 268.14 | 280/335 | 55 nm | 652.04 | 7.13 ± 0.23 µM | 54.13 ± 0.28 μg ascorbic acid equivalents/ml | –
CCNC(=S)NN=C(C)c1cc2ccc(OC)cc2oc1=O [H2L^3, ((1E)-1-(1-(7-methoxy-2-oxo-2H-chromen-3-yl)ethylidene) 4(N)-ethylthiosemicarbazone)] | – | – | – | – | – | – | – | – | 174 °C
CNC1=N[N+]2=C(C)c3[c](c4ccc(OC)cc4oc3=O)[Ru-4]2([C]#[O+])([P+](c2ccccc2)(c2ccccc2)c2ccccc2)([P+](c2ccccc2)(c2ccccc2)c2ccccc2)[S]1 [Complex 2, [Ru(7MAC-mtsc)(CO)(PPh3)2]] | 36.67% | 5.52 ± 0.009 × 10^3 M^−1 | 269.53 | 280/331 | 51 nm | 790.59 | 6.75 ± 0.18 µM | 58.27 ± 0.46 μg ascorbic acid equivalents/ml | –
COc1ccc2cc(C(C)=NNC(N)=S)c(=O)oc2c1 [H2L^1, ((1E)-1-(1-(7-methoxy-2-oxo-2H-chromen-3-yl)ethylidene)thiosemicarbazone)] | – | – | – | – | – | – | – | – | 213 °C
